Activity calls are given as the source filed them.
Experiments:
Mu-type opioid receptor = Mu-type opioid receptor (Homo sapiens, UniProt P35372); experiment: SAR Analysis of Antagonists of the MOR Receptor using an Image-Based Assay - Set 3. [Related pubchem assays (depositor defined):AID1777, AID1785, AID1786, AID1966, AID2133, AID2136, AID2284, AID2285, AID2420]; assay type: functional
[1] = biological target: T1, Kappa-type opioid receptor (Homo sapiens, UniProt P41145); experiment: SAR analysis of small molecule antagonists of the kappa opioid receptor via a luminescent beta-arrestin assay - Set 3. [Related pubchem assays (depositor defined):AID1777, AID1778, AID1785, AID1786, AID1966, AID2133, AID2136, AID2285, AID2495]; assay type: functional
T1 sequence (P41145 whole entry): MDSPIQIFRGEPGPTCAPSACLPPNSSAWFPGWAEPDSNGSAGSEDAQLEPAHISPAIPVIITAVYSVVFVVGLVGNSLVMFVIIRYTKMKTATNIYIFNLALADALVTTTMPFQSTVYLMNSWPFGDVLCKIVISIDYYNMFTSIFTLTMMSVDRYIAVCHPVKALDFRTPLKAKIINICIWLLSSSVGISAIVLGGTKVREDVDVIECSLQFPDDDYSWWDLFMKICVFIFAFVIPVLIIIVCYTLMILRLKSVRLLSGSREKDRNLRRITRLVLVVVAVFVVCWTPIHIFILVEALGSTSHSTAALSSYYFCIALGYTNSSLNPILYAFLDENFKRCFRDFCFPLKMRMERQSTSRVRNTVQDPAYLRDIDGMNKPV

[2] = biological target: Delta-type opioid receptor (Homo sapiens, UniProt P41143); experiment: SAR Analysis of Antagonists of the DOR Receptor using an Image-Based Assay - Set 3. [Related pubchem assays (depositor defined):AID1777, AID1785]; assay type: functional;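 note: U2OS cells expressing DOR1 and beta-arrestin GFP stimulated with 100 nM SNC80; imaging of GFP-tagged beta-arrestin moving into spots after receptor activation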
Delta-type opioid receptor, sequence (P41143 whole entry): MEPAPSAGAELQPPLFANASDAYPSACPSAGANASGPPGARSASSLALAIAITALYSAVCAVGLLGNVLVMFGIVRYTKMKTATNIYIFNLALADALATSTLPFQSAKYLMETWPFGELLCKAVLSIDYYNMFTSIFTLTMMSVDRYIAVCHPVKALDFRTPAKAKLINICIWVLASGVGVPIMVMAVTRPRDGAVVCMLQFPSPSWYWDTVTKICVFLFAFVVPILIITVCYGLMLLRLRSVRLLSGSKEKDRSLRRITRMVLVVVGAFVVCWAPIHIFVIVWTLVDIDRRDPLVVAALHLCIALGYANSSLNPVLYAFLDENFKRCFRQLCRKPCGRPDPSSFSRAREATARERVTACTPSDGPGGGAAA

[3] = biological target: T1, Kappa-type opioid receptor; experiment: SAR analysis of Antagonists of the Kappa Opioid Receptor (KOR) using an Image-Based Assay - Set 3. [Related pubchem assays (depositor defined):AID1777, AID1785]; assay type: functional
[4] = biological target: T2, Runt-related transcription factor 1/Core-binding factor subunit beta (Homo sapiens, UniProt Q01196+Q13951); experiment: Runt domain/CBFb-SMMHC interaction disruptors – biochemical, TR-FRET (AID 1438); assay type: protein assay
T2 sequence (Q01196 whole entry, the tested form may be a part): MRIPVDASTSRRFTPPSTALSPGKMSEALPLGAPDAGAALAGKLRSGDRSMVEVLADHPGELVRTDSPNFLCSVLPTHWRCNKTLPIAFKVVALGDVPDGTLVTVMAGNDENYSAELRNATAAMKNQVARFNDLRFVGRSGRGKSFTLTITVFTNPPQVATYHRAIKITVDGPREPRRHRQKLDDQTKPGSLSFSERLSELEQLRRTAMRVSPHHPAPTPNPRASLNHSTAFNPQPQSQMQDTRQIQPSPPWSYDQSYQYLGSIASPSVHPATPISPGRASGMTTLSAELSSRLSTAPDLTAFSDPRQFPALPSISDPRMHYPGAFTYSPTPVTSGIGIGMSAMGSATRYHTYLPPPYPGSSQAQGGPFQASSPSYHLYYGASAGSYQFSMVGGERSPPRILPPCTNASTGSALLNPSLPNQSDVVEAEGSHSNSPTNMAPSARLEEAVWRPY
T2 sequence (Q13951 whole entry, the tested form may be a part): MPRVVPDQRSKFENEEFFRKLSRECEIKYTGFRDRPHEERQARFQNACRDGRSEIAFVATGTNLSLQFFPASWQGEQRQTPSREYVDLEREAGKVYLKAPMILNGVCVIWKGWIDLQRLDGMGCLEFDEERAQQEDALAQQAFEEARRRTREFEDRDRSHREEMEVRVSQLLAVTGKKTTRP

[5] = biological target: T2, Runt-related transcription factor 1/Core-binding factor subunit beta; experiment: disruptors of Runt domain/CBFb-SMMHC interaction – biochemical, FRET, Cerulean-Runt, Venus-CBFb-SMMHC, uHTS, […] (AID 1434); assay type: protein assay
Genome polyprotein = Genome polyprotein (Hepatitis C virus, UniProt Q2Q167); experiment: disruption of hepatitis C core self-association – biochemical, TR-FRET, dose response (AID 2159); set-up: species or system Hepacivirus hominis;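 note: blocks dimerization of HCV core protein measured by TR-FRET between tagged core106 pairs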
Genome polyprotein, sequence (Q2Q167 whole entry): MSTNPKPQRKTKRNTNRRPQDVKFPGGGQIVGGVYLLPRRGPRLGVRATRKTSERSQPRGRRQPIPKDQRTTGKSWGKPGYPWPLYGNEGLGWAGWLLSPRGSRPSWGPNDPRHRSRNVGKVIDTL

Hexokinase = Hexokinase (Trypanosoma brucei, UniProt Q38C41); experiment: Confirmation assay for inhibitors of Trypanosoma brucei hexokinase 1-Analogue-first series. [Related pubchem assays (depositor defined):AID1430, AID1632, AID2516, AID2560, AID2579, AID2600, AID449725, AID492951]; assay type: functional
Hexokinase, sequence (Q38C41 whole entry): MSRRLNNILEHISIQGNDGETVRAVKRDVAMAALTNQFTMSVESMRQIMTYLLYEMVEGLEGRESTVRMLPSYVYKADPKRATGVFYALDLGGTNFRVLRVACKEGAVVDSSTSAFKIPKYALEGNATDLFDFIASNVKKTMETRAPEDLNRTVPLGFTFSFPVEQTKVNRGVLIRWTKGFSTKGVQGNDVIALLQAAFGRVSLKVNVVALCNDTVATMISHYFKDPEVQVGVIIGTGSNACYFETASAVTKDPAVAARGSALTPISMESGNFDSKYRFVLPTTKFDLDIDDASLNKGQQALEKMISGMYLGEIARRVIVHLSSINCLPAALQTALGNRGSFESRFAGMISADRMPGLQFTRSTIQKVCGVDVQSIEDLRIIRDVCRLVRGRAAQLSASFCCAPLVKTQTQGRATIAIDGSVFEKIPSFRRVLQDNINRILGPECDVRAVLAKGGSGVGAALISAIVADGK

Mu-type opioid receptor, sequence (P35372 whole entry): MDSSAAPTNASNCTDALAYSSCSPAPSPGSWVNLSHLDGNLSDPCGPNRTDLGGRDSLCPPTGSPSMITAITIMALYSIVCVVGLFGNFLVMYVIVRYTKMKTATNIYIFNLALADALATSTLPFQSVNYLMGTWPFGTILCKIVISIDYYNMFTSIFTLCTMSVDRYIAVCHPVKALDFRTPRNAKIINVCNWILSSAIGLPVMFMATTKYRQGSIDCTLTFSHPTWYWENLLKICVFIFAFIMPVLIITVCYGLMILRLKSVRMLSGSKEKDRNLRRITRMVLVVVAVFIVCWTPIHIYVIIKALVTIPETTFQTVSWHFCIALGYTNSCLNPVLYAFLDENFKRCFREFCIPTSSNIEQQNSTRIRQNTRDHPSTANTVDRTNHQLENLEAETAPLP

With `CCc1ccc(S(=O)(=O)NCc2ccc(C(=O)NCCN(Cc3ccc(C)cc3)C(C)C)cc2)cc1` the IC50 (Mu-type opioid receptor) was > 32 µM (inactive), the IC50 [1] was 0.742 µM (active) and the IC50 [2] was > 32 µM (inactive). The IC50 [3] was 0.173 µM (active).
`Cc1cccc(C(=O)/N=c2\c(C#N)cc3c(=O)n4cccc(C)c4nc3n2Cc2ccco2)c1` was tested, and the IC50 [4] was 6.54 µM (active), the IC50 [5] was 0.429 µM (active) and the IC50 (Genome polyprotein) was > 49.8 µM (not active).
For `O=c1cc(-c2ccccc2)sn1-c1ccccc1`, the IC50 (Hexokinase) was > 25 µM (inactive).

Source: ChEMBL document CHEMBL1201862, “PubChem BioAssay data set” (2004)
